Test results taken from patent publication US7977049B2, “Methods and compositions for extending the life span and increasing the stress resistance of cells and organisms” (priority 2002, dated 2011).
Where two headings read alike, the source gives them in different places.

Experiments:
recombinant human SIRT1 = biological target: T1, recombinant human SIRT1 (Homo sapiens, UniProt Q96EB6); test: In vitro deacetylation assay (HDAC Fluorescent Activity Assay), SIRT1; type: biochemical
T1 sequence (Q96EB6 1-747): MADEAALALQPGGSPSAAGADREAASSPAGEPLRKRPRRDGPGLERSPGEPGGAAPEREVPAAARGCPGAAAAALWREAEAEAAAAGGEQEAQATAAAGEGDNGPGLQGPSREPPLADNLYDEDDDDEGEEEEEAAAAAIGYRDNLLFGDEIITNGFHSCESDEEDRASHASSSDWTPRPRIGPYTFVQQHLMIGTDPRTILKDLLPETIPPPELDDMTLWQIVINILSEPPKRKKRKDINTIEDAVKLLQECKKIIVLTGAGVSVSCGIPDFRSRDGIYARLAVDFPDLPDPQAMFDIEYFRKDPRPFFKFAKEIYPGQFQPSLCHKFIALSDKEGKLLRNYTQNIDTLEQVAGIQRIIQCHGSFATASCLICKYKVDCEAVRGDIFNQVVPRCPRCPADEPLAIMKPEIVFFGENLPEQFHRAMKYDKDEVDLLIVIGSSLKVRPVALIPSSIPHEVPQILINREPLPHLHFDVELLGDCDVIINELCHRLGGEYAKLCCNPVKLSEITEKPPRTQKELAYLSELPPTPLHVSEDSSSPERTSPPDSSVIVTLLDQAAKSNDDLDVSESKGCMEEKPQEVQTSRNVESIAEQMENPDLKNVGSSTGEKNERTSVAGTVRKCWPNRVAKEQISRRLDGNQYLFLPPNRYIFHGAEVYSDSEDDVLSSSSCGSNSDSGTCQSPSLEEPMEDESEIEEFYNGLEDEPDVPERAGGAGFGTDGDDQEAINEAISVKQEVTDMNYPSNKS
Procedure: (§1) FIG. 13. […] Reactions were terminated by the addition of developer and samples were analyzed by fluorometry (excitation set at 360 nm and emission at 460 nm). Experiments were performed in triplicate. Data is shown as a Lineweaver-Burk double reciprocal plot of arbitrary fluorescence units (AFUs) min^−1 versus NAD^+ (μM). B, Experiments were performed as in A, except that recombinant human SIRT1 was used and reactions were carried out at 37° C. […] Reactions were carried out at 37° C. for 30 minutes and fluorescence was measured as in A.
(§2) In vitro deacetylation assays—Recombinant GST tagged yeast Sir2p (gift of D. Moazed) and recombinant human SIRT1 (47′) were assayed for deacetylase activity using the HDAC Fluorescent Activity Assay/Drug Discovery Kit (AK-500, BIOMOL Research Laboratories). This assay system allows detection of a fluorescent signal upon deacetylation of a histone substrate when treated with developer. Fluorescence was measured on a fluorometric reader (Cytofluor II 400 series PerSeptive Biosystems) with excitation set at 360 nm and emission detection set at 460 nm. Reactions consisted of either 5 μg of GST-Sir2 or 2.5 μg of SIRT1, incubated with 250 μM acetylated histone substrate, 1 mM DTT and a range of NAD^+ concentrations as described, in 50 μl of assay buffer. […]

[1] = tested on: yeast (PSY316AT and sir2::TRP1 strains)
Procedure: (§3) FIG. 9. […] A, Strains were assayed for rDNA stability by examining the rate of loss of an ADE2 marker integrated at the rDNA locus. […] More than 10,000 colonies were examined for each strain and each experiment was performed in triplicate. Average recombination frequencies (+/−s.d.) per cell division are shown. Relevant strains: W303-1A RDN1::ADE2 (W303AR5) and W303AR5 derivatives 2×SIR2 (YDS1572) and sir2::TRP1 (YDS878). […] C and D, Life spans were determined by scoring the number of daughter cells produced by each mother cell before cessation of cell division (68′,69′). Cells were pre-grown for a minimum of 48 h on complete glucose medium.
Replicative life span determination was performed by micromanipulation as described (25′). A minimum of 40 cells were examined per experiment and each experiment was performed at least twice independently. Statistical significance of life span differences was determined using the Wilcoxon rank sum test. Differences are stated to be significant when the confidence is higher than 95%.
Cells were grown for two days on fresh yeast YPD medium to ensure that they had fully recovered from conditions of calorie restriction prior to the assay. Daughter cells that emerged from previously unbudded mother cells were then micro-manipulated away and scored.

[2] = tested on: silent mating type locus (HMR); test: HMR::GFP reporter silencing (fluorescence microscopy and FACS); type: cell-based, Saccharomyces cerevisiae; conditions: for GFP expression from HMR by FACS: asynchronous wild type cells, 5 mM compound
Procedure: FIG. 10. […] Cells were photographed live. […] Cells were analyzed by fluorescent activated cell sorting (FACS) to determine the extent of ADH-GFP expression. C, A MATa derivative of strain YDS970 (YDS1005) was deleted for HML and treated with 10 μg/ml alpha-factor for 3 hours. […] Cell cycle progression was monitored at each time point by FACS analysis of propidium iodide stained cells.
GFP fluorescence was quantified by fluorescence-activated cell sorting (FACS) using a FACSCalibur flow cytometer (Becton Dickinson, Calif.) as described (45′). For G1-arrest experiments, cells were treated with 10 μg/ml alpha factor for 3 hours. DNA content was determined by FACS analysis of fixed cells stained with propidium iodide (Sigma) as described (45′). Typically 20,000 cells were analyzed per sample. Data acquisition and analysis were performed using CELLQuest software (Becton Dickenson).

[3] = tested on: silencing at the rDNA locus (RDN1)
Procedure: Silencing of the MET15 marker is indicated by the accumulation of a brown pigment. Single dark brown colonies in RDN1::MET15 strains represent marker loss events. […] Silencing of the ADE2 marker results in the accumulation of a red pigment.
Cells were grown at 30° C. on YPD medium (1% yeast extract, 2% bactopeptone, 2% glucose w/v) unless otherwise stated. The extent of silencing at the ribosomal DNA locus was determined by growing RDN1::MET15 strains on Pb^2+-containing medium (0.3% peptone, 0.5% yeast extract, 4% glucose, 0.02% (w/v) ammonium acetate, 0.07% Pb(NO3)2 and 2% agar).
Strains with either an ADE2 or MET15 marker integrated at the rDNA locus (RDN1) were examined. Silencing of ADE2 results in the accumulation of a red pigment on plates with limiting adenine, whereas silencing of MET15 leads to production of a brown pigment on Pb^2+-containing medium. […] Strains with a single extra copy of SIR2 (2×SIR2) or lacking SIR2 (sir2::TRP1), were included as controls for increased silencing and lack of silencing, respectively.

[4] = biological target: T2, Recombinant GST tagged yeast Sir2p (Saccharomyces cerevisiae, UniProt P06700); test: In vitro deacetylation assay (HDAC Fluorescent Activity Assay), Sir2; type: biochemical; conditions: 200-750 μM NAD+, 30° C.
T2 construct: gift of D. Moazed
T2 sequence (P06700 whole entry): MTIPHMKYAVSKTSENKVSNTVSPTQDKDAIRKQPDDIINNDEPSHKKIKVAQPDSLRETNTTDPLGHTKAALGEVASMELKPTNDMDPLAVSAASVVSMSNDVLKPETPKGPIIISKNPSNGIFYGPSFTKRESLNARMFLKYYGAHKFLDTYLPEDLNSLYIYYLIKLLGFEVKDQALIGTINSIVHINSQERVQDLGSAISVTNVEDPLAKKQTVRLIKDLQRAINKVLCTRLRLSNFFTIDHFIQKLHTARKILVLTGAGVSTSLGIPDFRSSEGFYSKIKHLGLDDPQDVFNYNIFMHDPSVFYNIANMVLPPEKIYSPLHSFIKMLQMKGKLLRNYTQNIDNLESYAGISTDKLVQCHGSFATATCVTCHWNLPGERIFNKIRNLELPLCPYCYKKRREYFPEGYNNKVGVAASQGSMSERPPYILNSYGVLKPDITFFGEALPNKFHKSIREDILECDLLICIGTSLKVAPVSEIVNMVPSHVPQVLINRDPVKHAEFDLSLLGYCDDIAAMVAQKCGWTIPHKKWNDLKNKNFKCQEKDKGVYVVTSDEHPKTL
Procedure: as §1, §2

[5] = tested on: rDNA locus of yeast (W303AR5 strains); test: Ribosomal DNA recombination (loss of ADE2 marker at the rDNA locus); type: cell-based, Saccharomyces cerevisiae; conditions: 5 mM nicotinamide
Procedure: as §3

silencing at telomeres = test: Telomeric silencing assay (ADE2 marker at the telomere); type: cell-based, Saccharomyces cerevisiae; conditions: 5 mM nicotinamide, limiting adenine
Procedure: Silencing of the MET15 marker is indicated by the accumulation of a brown pigment. Single dark brown colonies in RDN1::MET15 strains represent marker loss events. Relevant genotypes: met15Δ (JS209), MET15 (JS241), RDN1::MET15 (JS237), sir2::TRP1 (JS218), 2×SIR2 (YDS1583). […] Silencing of the ADE2 marker results in the accumulation of a red pigment. Relevant genotypes: (PSY316AT), W303-1 A ADE2 (YDS1596) and W303-1A ade2 (YDS 1595).
Cells were grown at 30° C. on YPD medium (1% yeast extract, 2% bactopeptone, 2% glucose w/v) unless otherwise stated. The extent of silencing at the ribosomal DNA locus was determined by growing RDN1::MET15 strains on Pb^2+-containing medium (0.3% peptone, 0.5% yeast extract, 4% glucose, 0.02% (w/v) ammonium acetate, 0.07% Pb(NO3)2 and 2% agar). […] Ribosomal DNA recombination frequencies were determined as previously described (44′).
To monitor telomeric silencing, we used a strain in which the ADE2 gene is integrated at the subtelomeric (Y′) region of the right arm of chromosome V (22′). On plates with limiting adenine, colonies have red/white sectors due to variegated expression of the ADE2 marker.

[6] = tested on: silencing of mating type genes; test: Mating type locus silencing assay; type: cell-based, Saccharomyces cerevisiae; conditions: nicotinamide
Sir2 = Sir2 protein levels in the presence of nicotinamide; type: cell-based, Saccharomyces cerevisiae; conditions: nicotinamide 1-5 mM
[7] = biological target: T3, association of Sir2 with rDNA, HMR and sub-telomeric DNA (Saccharomyces cerevisiae, UniProt P06700); test: Chromatin immunoprecipitation with α-Sir2 antibody; type: cell-based; conditions: 5 mM nicotinamide
T3 construct: endogenous in cells; host or cells: S. cerevisiae W303AR5
T3 sequence (P06700 whole entry): as above
Procedure: FIG. 12. […] PCR amplification of both input DNA from whole cell extracts and immunoprecipitated chromatin are shown. PCR was performed using primer pairs specific for the CUP1 gene (top panels), 5S rDNA (second panels), the HMR locus (third panels), or subtelomeric DNA 1.4 and 0.6 kb from telomeres (bottom panels).
Fluorescence Microscopy and Chomatin immunoprecipitation—GFP fluorescence was visualized in live cells grown to log phase in synthetic complete (SC) medium (1.67% yeast nitrogen base, 2% glucose, 40 mg/liter each of histidine, uridine, tryptophan, adenine and leucine). Images were captured using a Nikon Eclipse E600 microscope at a magnification of 1000× and analyzed with Scion Image software. PCR reactions were carried out in a 50 μl volume using a 1/5000 or a 1/12500 dilution of input DNA from precleared whole-cell extracts and a 1/50 dilution of immunoprecipitated DNA. PCR parameters were as follows. For CUP1 and 5S rDNA primer pairs, 26 cycles of PCR were performed with an annealing temperature of 55° C. For Tel 0.6, Tel 1.4 and HM primer pairs 32 cycles at an annealing temperature of 50° C. were used. PCR products were separated by gel electrophoresis on a 2.3% agarose gel and visualized by ethidium bromide staining.

Compound: O=C(O)c1cccnc1 [nicotinic acid]
- effect on the activity of SIRT1 in vitro (recombinant human SIRT1; 50 μM compound, 200 μM NAD+): no effect
- effect on replicative life span ([1]; 5 or 50 mM nicotinic acid): no detrimental effect
- Average life span, sir2 strain ([1]; sir2 strain, nicotinic acid (concentration not clear)): 12.2
- Average life span, wild type ([1]; wild type, 5 mM nicotinic acid): 26
- Average life span, wild type ([1]; wild type, 50 mM nicotinic acid): 25
- GFP expression from HMR by FACS [2]: no increase in GFP expression
- effect on Sir2-dependent silencing ([3]; 5 mM nicotinic acid, each of the rDNA, telomeric and mating type silencing assays): no effect

Compound: NC(=O)c1cccnc1 [nicotinamide]
- mode of inhibition of SIRT1 (Lineweaver-Burk plot) (recombinant human SIRT1; varying amounts of nicotinamide and NAD+): non-competitive
- mode of inhibition of Sir2 deacetylation (Lineweaver-Burk plot) [4]: strong non-competitive inhibitor
- Average life span, sir2 strain ([1]; sir2::TRP1 (YDS1594), 5 mM nicotinamide): 11.7
- Average life span, wild type ([1]; wild type (PSY316AT), 5 mM nicotinamide): 12.1
- rDNA recombination in the sir2 strain ([5]; sir2 strain): did not further increase recombination
- increase of the frequency of ADE2 marker loss at the rDNA ([5]; wild type and 2×SIR2 cells): ~7 fold
- telomeric silencing of ADE2 marker (silencing at telomeres): complete loss of repression
- silencing of mating type genes [6]: completely abrogated silencing
- HMR silencing in G1-arrested cells by FACS ([2]; alpha factor arrested cells, 5 mM nicotinamide): loss of silencing
- GFP expression from HMR by FACS [2]: complete derepression
- GFP expression from HMR, live cells (microscopy) ([2]; cycling cells, 5 mM nicotinamide, after 60 minutes): dramatic increase in the level of expression
- Sir2 protein levels (Sir2): unaltered
- ChIP: Sir2 association with 5S rDNA [7]: did not alter the amount of PCR product
- ChIP: Sir2 association with HMR [7]: no PCR product was obtained
- ChIP: Sir2 association with sub-telomeric DNA ([7]; 0.6 and 1.4 kb from telomere): equivalent to background
- silencing of MET15 marker at the rDNA locus ([3]; 5 mM nicotinamide): completely abolished
- Silencing of an ADE2 marker at the rDNA locus ([3]; addition of nicotinamide): similarly abolished

Compound: O=C(O)c1cccnc1C(=O)O [quinolinic acid]
- GFP expression from HMR by FACS [2]: no increase in GFP expression
